# Results taken from ChEMBL document CHEMBL1201862, “PubChem BioAssay data set” (2004).
#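 Assay format: 96-well plates, 48-hour exposure. GI50 = concentration required for 50% inhibition of growth.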 The source made the active and inactive calls. Cut-off read from the data, not from the text of the source: active = GI50 up to about 1.1 µM and inactive = higher.
# How the values were obtained:
# Test in all cases: NCI-60 cell line screen, 48 h
# [1] = test system: NCI/ADR-RES
# [2] = test system: M14
# [3] = test system: MCF7
# [4] = test system: MDA-MB-231
# [5] = test system: PC-3
# [6] = test system: SK-MEL-5
# [7] = test system: COLO 205
# [8] = test system: U-251
# [9] = test system: HT-29
# [10] = test system: SK-OV-3
# [11] = test system: SK-MEL-2
# [12] = test system: HOP-92
# [13] = test system: Malme-3M
# [14] = test system: OVCAR-4
# [15] = test system: MOLT-4
# [16] = test system: UO-31
# [17] = test system: T47D
# [18] = test system: RXF 393
# [19] = test system: SNB-75
# [20] = test system: HCT-15
# [21] = test system: SF-295
# [22] = test system: RPMI-8226
# [23] = test system: A549
# [24] = test system: NCI-H522
# [25] = test system: IGROV-1
# [26] = test system: MDA-MB-435
# [27] = test system: BT-549
# [28] = test system: NCI-H460
# [29] = test system: SW-620
# [30] = test system: DU-145
# [31] = test system: SF-268
# [32] = test system: SNB-19
# [33] = test system: NCI-H226
# [34] = test system: 786-0
# [35] = test system: TK-10
# [36] = test system: ACHN
# [37] = test system: KM12
# [38] = test system: EKVX
# [39] = test system: NCI-H23
# [40] = test system: CAKI-1
# [41] = test system: SN12C
# [42] = test system: K562
# [43] = test system: HCT-116
# [44] = test system: MDA-N
# [45] = test system: UACC-62
# [46] = test system: HL-60
# [47] = test system: SF-539
# [48] = test system: SR
# [49] = test system: CCRF-CEM
# [50] = test system: OVCAR-5
# [51] = test system: Hs-578T
# [52] = test system: UACC-257
# [53] = test system: OVCAR-8
# [54] = test system: OVCAR-3
# [55] = test system: SK-MEL-28
# [56] = test system: HOP-62
# [57] = test system: HCC 2998
# [58] = test system: LOX IMVI
structure (smiles),measurement,setting,value
CC(NC(=O)Cc1ccccc1)NC(=O)C(C)C(=O)NCc1ccccc1 (centres undefined),GI50,[1],> 100 µM (inactive)
same,GI50,[2],> 100 µM (inactive)
same,GI50,[3],> 100 µM (inactive)
same,GI50,[4],46.8 µM (inactive)
same,GI50,[5],> 100 µM (inactive)
same,GI50,[6],> 100 µM (inactive)
same,GI50,[7],> 100 µM (inactive)
same,GI50,[8],50.6 µM (inactive)
same,GI50,[9],> 100 µM (inactive)
same,GI50,[10],53.6 µM (inactive)
same,GI50,[11],75.3 µM (inactive)
same,GI50,[12],31.4 µM (inactive)
same,GI50,[13],> 100 µM (inactive)
same,GI50,[14],> 100 µM (inactive)
same,GI50,[15],> 100 µM (inactive)
same,GI50,[16],42.6 µM (inactive)
same,GI50,[17],> 100 µM (inactive)
same,GI50,[18],42.6 µM (inactive)
same,GI50,[19],38.8 µM (inactive)
same,GI50,[20],> 100 µM
same,GI50,[21],21.7 µM (inactive)
same,GI50,[22],> 100 µM (inactive)
same,GI50,[23],> 100 µM (inactive)
same,GI50,[24],> 100 µM (inactive)
same,GI50,[25],50.9 µM (inactive)
same,GI50,[26],> 100 µM (inactive)
same,GI50,[27],27.9 µM (inactive)
same,GI50,[28],> 100 µM (inactive)
same,GI50,[29],> 100 µM (inactive)
same,GI50,[30],> 100 µM (inactive)
same,GI50,[31],33.3 µM (inactive)
same,GI50,[32],23.7 µM (inactive)
same,GI50,[33],21.7 µM (inactive)
same,GI50,[34],> 100 µM (inactive)
same,GI50,[35],45.4 µM (inactive)
same,GI50,[36],52.2 µM (inactive)
same,GI50,[37],> 100 µM (inactive)
same,GI50,[38],> 100 µM (inactive)
same,GI50,[39],> 100 µM (inactive)
same,GI50,[40],81.7 µM (inactive)
same,GI50,[41],53.5 µM (inactive)
same,GI50,[42],> 100 µM (inactive)
same,GI50,[43],> 100 µM (inactive)
same,GI50,[44],> 100 µM (inactive)
same,GI50,[45],> 100 µM (inactive)
same,GI50,[46],> 100 µM (inactive)
same,GI50,[47],82.4 µM (inactive)
same,GI50,[48],> 100 µM (inactive)
same,GI50,[49],> 100 µM (inactive)
same,GI50,[50],> 100 µM (inactive)
same,GI50,[51],30.3 µM (inactive)
same,GI50,[52],> 100 µM (inactive)
same,GI50,[53],32.4 µM (inactive)
COc1cc(C=C(c2ccc(N(C)C)cc2)c2ccc(N(C)C)cc2)c2ccccc2c1OC,GI50,[1],23.4 µM (inactive)
same,GI50,[2],63.1 µM (inactive)
same,GI50,[3],26.2 µM (inactive)
same,GI50,[4],> 100 µM (inactive)
same,GI50,[5],41.6 µM (inactive)
same,GI50,[54],27.2 µM (inactive)
same,GI50,[6],51.9 µM (inactive)
same,GI50,[7],55.7 µM (inactive)
same,GI50,[8],54 µM (inactive)
same,GI50,[9],19 µM (inactive)
same,GI50,[10],> 100 µM (inactive)
same,GI50,[11],33.9 µM (inactive)
same,GI50,[12],> 100 µM (inactive)
same,GI50,[13],70.8 µM (inactive)
same,GI50,[14],70.3 µM (inactive)
same,GI50,[15],> 100 µM (inactive)
same,GI50,[16],> 100 µM (inactive)
same,GI50,[17],> 100 µM (inactive)
same,GI50,[18],> 100 µM (inactive)
same,GI50,[19],36.3 µM (inactive)
same,GI50,[55],93.8 µM (inactive)
same,GI50,[20],40.4 µM
same,GI50,[21],30.3 µM (inactive)
same,GI50,[22],45.8 µM (inactive)
same,GI50,[23],> 100 µM (inactive)
same,GI50,[24],25.4 µM (inactive)
same,GI50,[25],> 100 µM (inactive)
same,GI50,[26],22.3 µM (inactive)
same,GI50,[27],35.2 µM (inactive)
same,GI50,[28],96.2 µM (inactive)
same,GI50,[56],64 µM (inactive)
same,GI50,[30],> 100 µM (inactive)
same,GI50,[31],> 100 µM (inactive)
same,GI50,[32],> 100 µM (inactive)
same,GI50,[33],41 µM (inactive)
same,GI50,[34],> 100 µM (inactive)
same,GI50,[35],> 100 µM (inactive)
same,GI50,[36],49.4 µM (inactive)
same,GI50,[37],38.4 µM (inactive)
same,GI50,[38],> 100 µM (inactive)
same,GI50,[39],> 100 µM (inactive)
same,GI50,[40],> 100 µM (inactive)
same,GI50,[41],> 100 µM (inactive)
same,GI50,[42],17.5 µM (inactive)
same,GI50,[43],35.1 µM (inactive)
same,GI50,[44],16.2 µM (inactive)
same,GI50,[45],27.4 µM (inactive)
same,GI50,[46],9.29 µM (inactive)
same,GI50,[48],22.3 µM (inactive)
same,GI50,[49],18.6 µM (inactive)
same,GI50,[57],87.7 µM (inactive)
same,GI50,[58],64.9 µM (inactive)
same,GI50,[50],> 100 µM (inactive)
same,GI50,[51],43.2 µM (inactive)
same,GI50,[52],76.7 µM (inactive)
same,GI50,[53],> 100 µM (inactive)
